Article PMC7139804 (2020)

Legend:
[1] = tested on: CPG-tel26 (DNA, G4) TTAGGGTTAGGGTTAGGGTTAGGGTT; test: G4-CPG affinity chromatography; conditions: 50 mM KCl; washing solution with 10% DMSO, 10% ethanol; oligonucleotide on CPG; errors within ± 2%
[2] = tested on: CPG-ds27 (DNA, hairpin) CGCGAATTCGCGTTTCGCGAATTCGCG; test: G4-CPG affinity chromatography; conditions: 50 mM KCl; washing solution with 10% DMSO, 10% ethanol; oligonucleotide on CPG; errors within ± 2%
[3] = tested on: CPG-cmyc (DNA, G4) TGGGGAGGGTGGGGAGGGTGGGGAAGGTGGGGA; test: G4-CPG affinity chromatography; conditions: 50 mM KCl; washing solution with 10% DMSO, 10% ethanol; oligonucleotide on CPG; errors within ± 2%
[4] = tested on: cmyc (DNA, G4) TGGGGAGGGTGGGGAGGGTGGGGAAGGTGGGGA; test: fluorescence titration, independent equivalent-sites fit; conditions: 20 mM KCl, 5 mM KH2PO4, 10% DMSO, pH 7, 20 °C, 2 µM ligand
[5] = tested on: tel26 (DNA, G4) TTAGGGTTAGGGTTAGGGTTAGGGTT; test: as above; conditions: 20 mM KCl, 5 mM KH2PO4, 10% DMSO, pH 7, 20 °C, 2 µM ligand
[6] = tested on: tel26 (DNA, G4) TTAGGGTTAGGGTTAGGGTTAGGGTT; test: CD melting at 290 nm; conditions: 20 mM KCl, 5 mM KH2PO4; 10% DMSO, pH 7; 2 µM DNA, 12 µM compound (1:6)
[7] = tested on: ds27 (DNA, hairpin) CGCGAATTCGCGTTTCGCGAATTCGCG; test: fluorescence titration, independent equivalent-sites fit; conditions: 20 mM KCl, 5 mM KH2PO4, 10% DMSO, pH 7, 20 °C, 2 µM ligand
[8] = tested on: ds27 (DNA, hairpin) CGCGAATTCGCGTTTCGCGAATTCGCG; test: fluorescence titration and Job plot; conditions: 20 mM KCl, 5 mM KH2PO4; 10% DMSO, pH 7, 20 °C; 2 µM ligand, DNA up to 10 µM; no tight binding
[9] = tested on: cmyc (DNA, G4) TGGGGAGGGTGGGGAGGGTGGGGAAGGTGGGGA; test: fluorescence titration and Job plot; conditions: 20 mM KCl, 5 mM KH2PO4; 10% DMSO, pH 7, 20 °C; 2 µM ligand, DNA up to 10 µM; no tight binding
[10] = tested on: tel26 (DNA, G4) TTAGGGTTAGGGTTAGGGTTAGGGTT; test: fluorescence titration and Job plot; conditions: 20 mM KCl, 5 mM KH2PO4; 10% DMSO, pH 7, 20 °C; 2 µM ligand, DNA up to 10 µM; no tight binding

Row | SMILES | Bound Ligand (%) [1] [%] | Bound Ligand (%) [2] [%] | Bound Ligand (%) [3] [%] | other results
1 | CCCNc1cc2c3c(c(NCCCN(C)C)cc4c3c1C(=O)N(CCCN(C)C)C4=O)C(=O)N(CCCN(C)C)C2=O | 92 | 46 | – | –
2 | CN(C)CCCN1C(=O)c2cc(NCCCCCCCNc3cc4c5c(ccc6c5c3C(=O)N(CCCCCC(=O)O)C6=O)C(=O)N(CCCCCC(=O)O)C4=O)c3c4c(cc(Br)c(c24)C1=O)C(=O)N(CCCN(C)C)C3=O | 75 | 71 | 79 | –
3 | CN(C)CCCN1C(=O)c2cc(NCCOCCOCCNc3cc4c5c(c(Br)cc6c5c3C(=O)N(CCCCCC(=O)O)C6=O)C(=O)N(CCCCCC(=O)O)C4=O)c3c4c(cc(Br)c(c24)C1=O)C(=O)N(CCCN(C)C)C3=O | 73 | 38 | – | –
4 | CN(C)CCCN1C(=O)c2cc(NCCOCCOCCNc3cc4c5c(ccc6c5c3C(=O)N(CCCCCC(=O)O)C6=O)C(=O)N(CCCCCC(=O)O)C4=O)c3c4c(cc(Br)c(c24)C1=O)C(=O)N(CCCN(C)C)C3=O | 67 | 29 | 64 | –
5 | CN(C)CCCN1C(=O)c2ccc3c4c(c(NCCCCCCCNc5cc6c7c(ccc8c7c5C(=O)N(CCCCCC(=O)O)C8=O)C(=O)N(CCCCCC(=O)O)C6=O)cc(c24)C1=O)C(=O)N(CCCN(C)C)C3=O | 77 | 61 | – | –
6 | CN(C)CCCN1C(=O)c2ccc3c4c(c(NCCOCCOCCNc5cc6c7c(c(Br)cc8c7c5C(=O)N(CCCCCC(=O)O)C8=O)C(=O)N(CCCCCC(=O)O)C6=O)cc(c24)C1=O)C(=O)N(CCCN(C)C)C3=O | 68 | 33 | 79 | binding [8]: weak; binding [9]: weak; binding [10]: weak
7 | CN(C)CCCN1C(=O)c2ccc3c4c(c(NCCOCCOCCNc5cc6c7c(ccc8c7c5C(=O)N(CCCCCC(=O)O)C8=O)C(=O)N(CCCCCC(=O)O)C6=O)cc(c24)C1=O)C(=O)N(CCCN(C)C)C3=O | 85 | 34 | 79 | –
8 | CN(C)CCCNc1cc2c3c(c(NCCOCCOCCNc4cc5c6c(ccc7c6c4C(=O)N(CCCCCC(=O)O)C7=O)C(=O)N(CCCCCC(=O)O)C5=O)cc4c3c1C(=O)N(CCCN(C)C)C4=O)C(=O)N(CCCN(C)C)C2=O | 90 | 71 | 87 | –

Continued, in another order:

Row | Bound Ligand (%) [1] [%] | Bound Ligand (%) [2] [%] | Bound Ligand (%) [3] [%] | SMILES | other results
9 | 85 | 50 | 95 | CCCNc1cc2c3c(ccc4c3c1C(=O)N(CCCN(C)C)C4=O)C(=O)N(CCCN(C)C)C2=O | –
10 | 100 | 48 | 97 | CN(C)CCCN1C(=O)c2ccc3c4c(c(NCCCCCCCN)cc(c24)C1=O)C(=O)N(CCCN(C)C)C3=O | –
11 | 99 | 30 | 99 | CN(C)CCCN1C(=O)c2ccc3c4c(c(NCCOCCO)cc(c24)C1=O)C(=O)N(CCCN(C)C)C3=O | Kb [4]: 2.6 (±0.2) × 10^7 M^−1; Kb [5]: 2.4 (±0.1) × 10^7 M^−1; ΔTm [6]: +15 °C; Kb [7]: 1.9 (±0.2) × 10^7 M^−1
12 | 97 | 41 | – | CN(C)CCCN1C(=O)c2ccc3c4c(c(NCCOCCOCCN)cc(c24)C1=O)C(=O)N(CCCN(C)C)C3=O | –
